How the values were obtained:
[1] = system: short-necked clam (Ruditapes philippinarum); assay: Biological activity of short-necked clam (aqueduct extension score) in aqueous mineral solutions; type: in vivo; settings: saccharide 1 w/v %, total of 18 clams, 16 h
Experimental: Suitable region for biological activity of short-necked clam (Ruditapes philippinarum), as a fish or shellfish living in seawater, was examined by adding various saccharides to mineral aqueous solutions with various concentrations. In detail, solar salt (85% by weight of sodium chloride and 15% by weight of magnesium) as minerals was dissolved in running water kept in a container for two days to give final concentrations described in the following Table 1. Saccharide (any one of D-glucose, maltose, sucrose, maltitol, α,α-trehalose, α-maltosyl α,α-trehalose, maltotetraose and cyclic tetrasaccharide) was dissolved in the resulting salt solutions to give a final concentration of 1 w/v %, on a dry solid basis. Each of the resulting solutions was placed in a plastic bat. Eighteen pre-selected active short-necked clam in one group were placed in the bat. The bat was shaded with a black cloth and left at ambient temperature (18° C.) for 16 hours. As a control, an aqueous solar salt solution without any saccharides was prepared. Saccharides except for α-maltosyl α,α-trehalose as a saccharide derivatives thereof and cyclic tetrasaccharide were chosen from commercialized products. α-Maltosyl α,α-trehalose as saccharide derivatives of α,α-trehalose in a powder form with a purity of 98 w/w % or over was prepared by the method disclosed in Experiment 4 in Japanese Patent Kokai No. 143876/1995. Cyclic tetrasaccharide in a crystalline form with a purity of 98 w/w % or over, on a dry solid basis, was prepared by the method disclosed in Example A-7 in International Patent Publication No. WO02/10361. Influence of various saccharides was judged by observing the degree of extending aqueduct of the shellfish; 3 points: its aqueduct is well extended; 2 points: its aqueduct is slightly extended; 1 point: its aqueduct is not extended but its shells are opened; 0 point: its shells are closed. The effect on biological activity was judged by the total point of 18 shellfishes. To investigate the effective concentration range of α,α-trehalose or α-maltosyl α,α-trehalose against a mineral solution with a concentration of 1.5 w/v % or 4.5 w/v %, where α,α-trehalose or α-maltosyl α,α-trehalose was remarkably effective in Experiment 1, the following experiment using α,α-trehalose or α-maltosyl α,α-trehalose at a concentration of 0.01, 0.1, 1, 2, 3 or 4 w/v % was carried out according to the method in Experiment 1. As a control, mineral aqueous solutions with a concentration of 1.5 w/v % or 4.5 w/v % without any of the saccharides were prepared and carried out in the same manner.

[2] = system: colbicula (Corbicula leana); assay: Biological activity of corbicula (aqueduct extension score) in aqueous mineral solutions; type: in vivo; settings: saccharide 1 w/v %, total of 18 shellfishes, 16 h
Source text: Influence of various saccharides was judged by observing the degree of extending aqueduct of the shellfish; 3 points: its aqueduct is well extended; 2 points: its aqueduct is slightly extended; 1 point: its aqueduct is not extended but its shells are opened; 0 point: its shells are closed. The effect on biological activity was judged by the total point of 18 shellfishes.
Suitable region for biological activity was examined by using colbicula (Corbicula leana) as fishes and shellfishes living in fresh water in the case of enhancing their biological activity by using aqueous mineral solutions containing various saccharides. In detail, solar salt (85% by weight of sodium chloride and 15% by weight of magnesium) as minerals was dissolved in tap water kept in a container for two days to give final concentrations described in the following Table 4. Saccharide (any one of D-glucose, maltose, sucrose, maltitol, α,α-trehalose, α-maltosyl α,α-trehalose, maltotetraose and cyclic tetrasaccharide) was dissolved in the resulting salt solutions to give a final concentration of 1 w/v %, on a dry solid basis. The resulting each solution was placed in a plastic bat. Eighteen pre-selected active shellfishes in one group were placed in the bat. The bat was shaded with a black cloth and left at ambient temperature (18° C.) for 16 hours. As a control, an aqueous solar salt solution without saccharides was prepared. Biological activity of the shellfish was judged by measuring extend their aqueducts macroscopically in the same manner as in Experiment 1.
Effective concentration range of α,α-trehalose or α-maltosyl α,α-trehalose on enhancing biological activity and/or influencing on suitable region for biological activity of colbicula (Corbicula leana) was determined according to the method of Experiment 4 by examining biological activity of the shellfish in the aqueous mineral solution with a mineral concentration of 1.5 w/v %, where α,α-trehalose or α-maltosyl α,α-trehalose was effective in Experiment 4, containing α,α-trehalose or α-maltosyl α,α-trehalose at a concentration of 0.01, 0.1, 1, 2, 3 or 4 w/v %, on a dry solid basis. As a control, a solution containing 1.5 w/v % of mineral without such saccharides was prepared and treated in the same manner.

| Compound | Judgment score for biological activity ([1]; mineral 0 w/v %) | Judgment score for biological activity ([1]; mineral 0.5 w/v %) | Judgment score for biological activity ([1]; mineral 1.0 w/v %) | Judgment score for biological activity ([1]; mineral 1.5 w/v %) | Judgment score for biological activity ([1]; mineral 2.0 w/v %) | Judgment score for biological activity ([1]; mineral 2.5 w/v %) | Judgment score for biological activity ([1]; mineral 3.0 w/v %) | Judgment score for biological activity ([1]; mineral 3.5 w/v %) | Judgment score for biological activity ([1]; mineral 4.0 w/v %) | Judgment score for biological activity ([1]; mineral 4.5 w/v %) | Judgment score for biological activity ([1]; mineral 5.0 w/v %) | Judgment score for biological activity ([1]; mineral 5.5 w/v %) | Judgment score for biological activity ([1]; mineral 6.0 w/v %) | Judgment score of biological activity ([2]; mineral concentration 0) | Judgment score of biological activity ([2]; mineral concentration 0.5) | Judgment score of biological activity ([2]; mineral concentration 1.0) | Judgment score of biological activity ([2]; mineral concentration 1.5) | Judgment score of biological activity ([2]; mineral concentration 2.0) | Judgment score of biological activity ([2]; mineral concentration 2.5) | Judgment score of biological activity ([2]; mineral concentration 3.0) |
| --- | --- | --- | --- | --- | --- | --- | --- | --- | --- | --- | --- | --- | --- | --- | --- | --- | --- | --- | --- | --- |
| OC[C@H]1O[C@H](O[C@H]2[C@H](O)[C@@H](O)[C@@H](O[C@H]3[C@H](O)[C@@H](O)[C@@H](O[C@H]4[C@H](O)[C@@H](O)C(O)O[C@@H]4CO)O[C@@H]3CO)O[C@@H]2CO)[C@H](O)[C@@H](O)[C@@H]1O (some centres unmarked) [Maltotetraose, maltotetraose] | 7 | 11 | 12 | 16 | 28 | 45 | 46 | 42 | 31 | 26 | 14 | 5 | 0 | 51 | 49 | 19 | 14 | 11 | 9 | 0 |
| OC[C@H]1O[C@@](CO)(O[C@H]2O[C@H](CO)[C@@H](O)[C@H](O)[C@H]2O)[C@@H](O)[C@@H]1O [Sucrose, sucrose] | 7 | 11 | 14 | 16 | 31 | 44 | 48 | 45 | 30 | 21 | 9 | 0 | 0 | 51 | 46 | 21 | 11 | 8 | 7 | 0 |
| OC[C@H]1O[C@@H]2OC[C@H]3O[C@H](O[C@@H]4[C@@H](O)[C@@H](OC[C@H]5O[C@H](O[C@H]([C@H]2O)[C@@H]1O)[C@H](O)[C@@H](O)[C@@H]5O)O[C@H](CO)[C@H]4O)[C@H](O)[C@@H](O)[C@@H]3O [Cyclic tetrasaccharide, cyclic tetrasaccharide] | 6 | 10 | 15 | 16 | 30 | 43 | 49 | 41 | 30 | 17 | 11 | 0 | 0 | 51 | 50 | 29 | 16 | 13 | 12 | 1 |
| OC[C@@H](O)[C@@H](O[C@H]1O[C@H](CO)[C@@H](O)[C@H](O)[C@H]1O)[C@H](O)[C@@H](O)CO [Maltitol, maltitol] | 8 | 11 | 15 | 20 | 30 | 41 | 48 | 47 | 32 | 16 | 12 | 5 | 0 | 50 | 47 | 25 | 18 | 13 | 2 | 0 |

— US20070232563A1, “Method for Enhancing Biological Activity and/or Expanding Suitable Region for Biological Activity of Living Body Contacting with Aqueous Environment” (Kabushiki Kaisha Hayashibara Seibutsu Kagaku Kenky, priority 2004, published 2007)
